Results: patent US11000560B2, “Oncolytic adenoviruses with mutations in immunodominant adenovirus epitopes and their use in cancer treatment” (VCN B[…], priority 2015, dated 2021)

Test system: human HLA-A2.1
Experiment: HLA-A2.1 stabilization assay (RMA-S A2 cells)
Assay type: binding
Conditions: for reduction of HLA-A2 binding compared to unmodified counterpart: from Kd values; for HLA-A2 binding compared to unmodified counterpart: peptide 300 to 0.1 μM
Description: An HLA-A2.1 stabilization assay was used, with minor modifications from Takiguchi et al. (Takiguchi, M., Tissue Antigens. 2000 April; 55(4):296-302) (incorporated by reference herein in its entirety), to evaluate the binding affinity of mutated peptides. Murine cells expressing HLA-A2.1 (RMA-S A2 cells) were incubated for 18 h at 26° C. in order to allow for HLA-A2 surface expression in the absence of any peptide. Peptides were serially diluted 1:3 in a 96-well plate with a U shape bottom, starting with 300 μM up to 0.1 μM in 100 μl volume. 2.5e5 RMA-S A2 cells were added to each well in 100 μl volume. The mixture was incubated for 2 hours at 26° C. and then at 37° C. for 2 hours to allow unbound HLA-A2.1 to be internalized. Cells were spun for 3 minutes at 500 g and washed three times with PBS, FBS 5%, BSA 0.5%. Cells were incubated with 100 μl of the supernatant of hybridoma anti-HLA-A2.1 (PA2.1) and incubated for 30 minutes at 4° C. Cells were washed three times and then incubated with Alexa Fluor® 488 goat anti-mouse IgG (Molecular Probes®) at 1:500 dilution for 30 minutes at 4° C. Cells were washed three times and then analyzed with Gallios flow cytometer (Beckman Coulter). As a negative control, RMA-S A2 cells were incubated with a peptide having no affinity to HLA-A2.1 under the same experimental conditions. The fluorescence index was calculated using the formula: Fluorescein Index=(sample fluorescence−negative control fluorescence)/negative control fluorescence.
Using GraphPad Prism v5, Kd values were analyzed using a non-linear regression. A Kd value was obtained for each peptide that represents the binding constant in equilibrium with half of the maximum possible binding.

For GLVDCYINP [L520P], the “reduction of HLA-A2 binding compared to unmodified counterpart” value was “more than 10 times”.

For YVLFEVFDK [V925K], the “reduction of HLA-A2 binding compared to unmodified counterpart” value was ~600 times.

With LLYANSAHS [A900S] the “HLA-A2 binding compared to unmodified counterpart” value was “maintained the same level of binding”.

YLNHTFKKA [V721A] was tested, and the “HLA-A2 binding compared to unmodified counterpart” value was “maintained the same level of binding”.
